# From ChEMBL document CHEMBL1800012, “Optimisation of a novel series of selective CNS penetrant CB(2) agonists” (Bioorg Med Chem Lett, 2011)
# Tests used:
# [1] = Intrinsic clearance in human liver microsomes; type: ADME, Microsome
# [2] = Intrinsic clearance in rat liver microsomes; type: ADME, Microsome
# Cannabinoid receptor 2 [3] = target: T1, Cannabinoid receptor 2 (Homo sapiens, UniProt P34972); assay: Agonist activity at human recombinant CB2 receptor expressed in CHO cells assessed as inhibition forskolin-induced cAMP release; type: functional, cell-based
# Cannabinoid receptor 2 [4] = target: T1, Cannabinoid receptor 2; assay: Agonist activity at human recombinant CB2 receptor expressed in CHO cells assessed as inhibition forskolin-induced cAMP release relative to control; type: functional, cell-based
# [5] = Half life in rat at 1 mg/kg, iv; type: ADME, organism-based; parameters: dose 1 mg/kg, route intravenous; details: in vivo
# [6] = Volume of distribution in rat at 1 mg/kg, iv; type: ADME, organism-based; parameters: dose 1 mg/kg, route intravenous; details: in vivo
# [7] = Clearance in rat at 1 mg/kg, iv; type: ADME, organism-based; parameters: dose 1 mg/kg, route intravenous; details: in vivo
# [8] = Ratio of unbound drug level in brain to plasma in rat; type: ADME, organism-based; details: brain and plasma, read-out: BPR
# Cannabinoid receptor 1 [9] = target: T2, Cannabinoid receptor 1 (Homo sapiens, UniProt P21554); assay: Binding affinity at human CB1 receptor
# [10] = Oral bioavailability in rat; type: ADME, organism-based; details: in vivo
# Rattus norvegicus = species: Rattus norvegicus; assay: Ratio of unbound drug level in brain to plasma in rat relative to control; type: ADME, organism-based; details: in vivo
# Cannabinoid receptor 1 [11] = target: T2, Cannabinoid receptor 1; assay: Agonist activity at human CB1 receptor by functional assay
# T2 sequence (P21554 whole entry): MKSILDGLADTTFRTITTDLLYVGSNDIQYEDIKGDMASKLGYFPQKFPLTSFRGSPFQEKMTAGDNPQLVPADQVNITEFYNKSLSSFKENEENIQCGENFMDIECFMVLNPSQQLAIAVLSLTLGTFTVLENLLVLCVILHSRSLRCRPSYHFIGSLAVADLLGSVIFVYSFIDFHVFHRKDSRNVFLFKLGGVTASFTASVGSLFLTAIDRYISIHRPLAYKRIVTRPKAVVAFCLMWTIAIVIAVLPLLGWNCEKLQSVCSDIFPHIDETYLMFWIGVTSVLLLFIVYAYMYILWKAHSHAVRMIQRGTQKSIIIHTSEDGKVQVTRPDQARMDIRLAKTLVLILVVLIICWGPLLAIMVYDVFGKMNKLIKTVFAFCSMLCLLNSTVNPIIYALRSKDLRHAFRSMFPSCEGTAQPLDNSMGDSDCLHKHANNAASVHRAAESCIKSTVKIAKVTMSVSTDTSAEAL
# T1 sequence (P34972 whole entry): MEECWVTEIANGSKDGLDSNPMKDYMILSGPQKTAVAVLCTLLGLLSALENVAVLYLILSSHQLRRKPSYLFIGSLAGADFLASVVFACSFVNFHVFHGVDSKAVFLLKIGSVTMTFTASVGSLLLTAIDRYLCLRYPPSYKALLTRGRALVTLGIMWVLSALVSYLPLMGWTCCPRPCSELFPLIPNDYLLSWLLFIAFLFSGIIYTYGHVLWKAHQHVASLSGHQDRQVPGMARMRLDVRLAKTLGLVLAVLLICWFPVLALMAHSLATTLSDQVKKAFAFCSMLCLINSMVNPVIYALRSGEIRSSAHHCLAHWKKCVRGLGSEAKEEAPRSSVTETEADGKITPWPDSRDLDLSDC
SMILES,microsomal CLint [1] [µL/min/mg],microsomal CLint [2] [µL/min/mg],EC50 (Cannabinoid receptor 2 [3]) [nM],further results
CCS(=O)(=O)c1ccc2c(c1)nc(C1CCCC1)n2CC1CC1,11,106,25,
CCS(=O)(=O)c1ccc2c(c1)nc(CCC(C)C)n2CC1CC1,,,67,Emax (Cannabinoid receptor 2 [4]): 58%
CC(C)(C)Cc1nc2cc(S(=O)(=O)C(C)(C)CO)ccc2n1CC1CC1,< 7,54,1.2,
CCS(=O)(=O)c1ccc2c(c1)nc(C(C)(C)C)n2C1CC1,8,8.5,106,
CCS(=O)(=O)c1ccc2c(c1)nc(C1(C)CC1)n2CC1CC1,8,11,51,
CCS(=O)(=O)c1ccc2c(c1)nc(C1CCC1)n2CC1CC1,8,33,82,
CCS(=O)(=O)c1ccc2c(c1)nc(C(C)(C)C)n2C[C@@H]1CCCO1,12,17,11,half-life [5]: 0.4 h; Vd [6]: 1 L/kg; clearance [7]: 27.1 mL/min/kg; Kp uu [8]: 1
CC(C)S(=O)(=O)c1ccc2c(c1)nc(CC(C)(C)C)n2CC1CC1,23,144,3.2,Ki (Cannabinoid receptor 1 [9]): > 10000 nM
CC(C)(C)Cc1nc2cc(S(=O)(=O)CC(C)(C)O)ccc2n1CC1CC1,< 7,244,3.1,
CN(C)CCn1c(CC(C)(C)C)nc2cc(S(=O)(=O)CC(C)(C)O)ccc21,< 7,< 11.2,12,bioavailability [10]: 21%; Ki (Cannabinoid receptor 1 [9]): > 19400 nM; BPR (Rattus norvegicus): < 1%
CCS(=O)(=O)c1ccc2c(c1)nc(C(C)(C)C)n2CCN(C)C,8,8.5,39,
CCS(=O)(=O)c1ccc2c(c1)nc(C(C)(C)C)n2CCOC(F)(F)F,7,19,5.3,
CC(C)(C)Cc1nc2cc(S(=O)(=O)Cc3ccccc3)ccc2n1CC1CC1,276,369,6.5,
CCS(=O)(=O)c1ccc2c(c1)nc(C(C)C)n2CC1CC1,,,132,
CCS(=O)(=O)c1ccc2c(c1)nc(C1(C)CCCC1)n2CC1CC1,42,106,9.6,
CN(C)CCS(=O)(=O)c1ccc2c(c1)nc(CC(C)(C)C)n2CC1CC1,79,170,32,
CCS(=O)(=O)c1ccc2c(c1)nc(CC1CC1)n2CC1CC1,,,425,Emax (Cannabinoid receptor 2 [4]): 79%
CCCc1nc2cc(S(=O)(=O)CC)ccc2n1CC1CC1,43,34,199,
CCS(=O)(=O)c1ccc2c(c1)nc(C(C)(C)C)n2CC1CC1,9,12,2.7,half-life [5]: 1.9 h; Vd [6]: 3.2 L/kg; EC50 (Cannabinoid receptor 1 [11]): > 10 nM; bioavailability [10]: 100%; clearance [7]: 20 mL/min/kg; Ki (Cannabinoid receptor 1 [9]): > 20000 nM; BPR (Rattus norvegicus): 30
CCS(=O)(=O)c1ccc2c(c1)nc(CC(C)(C)C)n2CC1CC1,8.4,38,2.9,
CC(C)(C)Cc1nc2cc(S(=O)(=O)C(C)(C)C)ccc2n1CC1CC1,38,,0.43,
